According to US20260184669A1, “LIPID COMPOUND AND COMPOSITION FOR DELIVERY OF ACTIVE SUBSTANCE” (KOREA RESEARCH INSTIUTE OF BIOSCIENCE AND BIOTECHNOLOGY, priority 2022, published 2026):

Tests used:
[1] = Stability of mRNA-LNPs according to storage temperature and duration; assay type: physicochemical; settings: for Normalized EE % D-1 / Size (nm) D-1 / PDI D-1: day 1; for Normalized EE % D-7 / PDI D-7 / Size (nm) D-7: day 7; for Normalized EE % D-30 / PDI D-30 / Size (nm) D-30: day 30
Protocol: Stability of fLuc mRNA-LNPs produced using various ionizable lipids according to the method of Example 27, was assessed by storing the LNPs at 4° C. and 25° C. At 1, 7, and 30 days post-manufacture, the size, PDI, and encapsulation efficiency (EE) of each mRNA-LNPs samples were measured using the methods described in Experimental Examples 2 and 3.

[2] = system: female C57BL/6 mice; test: Protein expression efficiency of fLuc mRNA-LNPs after intramuscular injection (IVIS whole-body luminescence); assay type: in vivo; settings: for Total flux 1 hour / Total flux 3 hours / Total flux 6 hours / Total flux 48 hours / Total flux 72 hours / Total flux: fLuc mRNA-LNP, intramuscular injection, luminescence at injection site, mice; for Total flux 1 hour: 1 hour after administration; for Total flux 3 hours: 3 hours after administration; for Total flux 6 hours: 6 hours after administration; for Total flux 48 hours: 48 hours after administration; for Total flux 72 hours: 72 hours after administration; for Total flux: after administration; for Fold increase in total flux at 3 h, MC3: relative to control LNP formulated with MC3; for Fold increase in total flux at 3 h, MC3 / Fold increase in total flux at 3 h, SM-102: 3 hours after intramuscular injection; for Fold increase in total flux at 3 h, SM-102: relative to control LNP formulated with SM-102
Protocol: fLuc mRNA-LNPs formulated using various ionizable lipids were prepared according to the method described in Example 27 and administered in vivo via intramuscular (I. M.) or intravenous (IV.) injection to compare the resulting protein expression efficiency in vivo. As a control, EGFP mRNA-LNPs formulated with commercially available ionizable lipids MC3 or SM-102 were used. All mRNA-LNPs were administered at equal mRNA doses per body weight across different concentration groups (n≥4).
Specifically, the dose of mRNA-LNPs was adjusted to 0.1-0.5 mg/kg of body weight, and the formulation was administered via I.M. or I.V. injection to female C57BL/6 mice (6-10 weeks old, Orient Bio, Korea) Subsequently, […], whole-body luminescence images were acquired using an in vivo imaging system (IVIS Lumina III, PerkinElmer, Walzam, MA, USA). To assess protein expression levels, 200 μL of D-luciferin (15 mg/mL) was administered via intraperitoneal (I.P.) injection 10 minutes prior to imaging. During image acquisition, the animals were anesthetized by inhalation of 3% isoflurane in 97% medical grade oxygen. In addition, the acquired luminescence images were quantitatively analyzed using imaging software (Living Image Software Version 4.4; PerkinElmer, USA).
After intramuscular injection of the fLuc mRNA-LNPs, the luminescence intensity at the injection site was measured over time.
Furthermore, the luminescence intensity at the injection site 3 hours after intramuscular injection was measured, and the relative protein expression efficiency was compared to that of control LNPs formulated with MC3 or SM-102.

[3] = Size, polydispersity index and surface charge of mRNA-LNP (Malvern Zetasizer Nano ZS90); assay type: physicochemical; settings: for PDI / size (nm) Number: mRNA-LNP made with the ionizable lipid at its optimal formulation (Table 2); for size (nm) Number: diluted with PBS to 1 μg/mL mRNA; for Zeta (mV): surface charge of mRNA-LNP made with the ionizable lipid at its optimal formulation (Table 2)
Protocol: Each mRNA-LNPs produced in Example 27 was diluted with PBS to a final mRNA concentration of 1 μg/mL. The size, polydispersity index (PDI), and surface charge of the mRNA-LNPs were then measured using a Malvern Zetasizer Nano ZS90 (Malvern Instruments, UK).
For particles intended for systemic administration, such as via blood vessels, the particle size must be less than 200 nm in order to pass through the endothelial capillaries of the liver. In addition, the size distribution is considered uniform only when the PDI is 0.3 or less, which enables consistent and efficient therapeutic effects (Non-patent document 3 [Danaei, M. et al). Pharmaceutics 2018, 10, 57]).

[4] = mRNA encapsulation efficiency (Quant-IT RiboGreen RNA assay); assay type: physicochemical; settings: mRNA encapsulation efficiency of mRNA-LNP made with the ionizable lipid; average of two measurements
Protocol: The mRNA encapsulation efficiency (EE, %) of LNPs containing mRNA was measured using the Quant-IT™ RiboGreen® RNA assay kit (Invitrogen, USA).
The diluted samples were added to each well of a 96-well plate. Group A (without Triton X-100) was supplemented with 50 μL of 1×TE buffer, while Group B (with Triton X-100) was supplemented with 50 μL of 1×TE buffer containing 2% Triton-X 100. To release the encapsulated mRNA, the LNPs were treated with Triton-X 100 and incubated at 37° C. for 10 minutes. Subsequently, 100 μL of ribogreen reagent was added to each well. The fluorescence intensities of Group A and Group B were measured using a multi-plate reader (λex 480 nm, λem 520 nm), and mRNA encapsulation efficiency (%) was calculated using Equation 1 below. The encapsulation efficiency for each LNP was determined as the average of two independent measurements.

| SMILES | Normalized EE % D-1 ([1]; fLuc mRNA-LNP stored at 4° C.) | Size (nm) D-1 ([1]; fLuc mRNA-LNP stored at 4° C.) | Normalized EE % D-7 ([1]; fLuc mRNA-LNP stored at 4° C.) | PDI D-7 ([1]; fLuc mRNA-LNP stored at 4° C.) | Size (nm) D-7 ([1]; fLuc mRNA-LNP stored at 4° C.) | Normalized EE % D-30 ([1]; fLuc mRNA-LNP stored at 4° C.) | PDI D-30 ([1]; fLuc mRNA-LNP stored at 4° C.) | Size (nm) D-30 ([1]; fLuc mRNA-LNP stored at 4° C.) | Normalized EE % D-1 ([1]; fLuc mRNA-LNP stored at 25° C.) | PDI D-1 ([1]; fLuc mRNA-LNP stored at 25° C.) | Size (nm) D-1 ([1]; fLuc mRNA-LNP stored at 25° C.) | Normalized EE % D-7 ([1]; fLuc mRNA-LNP stored at 25° C.) | PDI D-7 ([1]; fLuc mRNA-LNP stored at 25° C.) | Size (nm) D-7 ([1]; fLuc mRNA-LNP stored at 25° C.) | Normalized EE % D-30 ([1]; fLuc mRNA-LNP stored at 25° C.) | PDI D-30 ([1]; fLuc mRNA-LNP stored at 25° C.) | Size (nm) D-30 ([1]; fLuc mRNA-LNP stored at 25° C.) | Total flux 1 hour [2] | Total flux 3 hours [2] | Total flux 6 hours [2] | further results |
| --- | --- | --- | --- | --- | --- | --- | --- | --- | --- | --- | --- | --- | --- | --- | --- | --- | --- | --- | --- | --- | --- |
| CCCCCCCCCCCOC(=O)CCCCCN(CCCCCCCC(=O)OC(CCCCCCCC)CCCCCCCC)CC(O)CCCCNC(=O)c1ncc[nH]1 (stereo not shown) [Compound 33, Heptadecan-9-yl 8-((2-hydroxy-6-(1H-imidazole-2-carboxamido)hexyl)(6-oxo-6-(undecyloxy)hexyl)amino)octanoate] | 90.0% | 112.8 nm | 83.3% | 0.079 | 120.3 nm | 89.3% | 0.113 | 115.6 nm | 90.0% | 0.145 | 112.8 nm | 82.1% | 0.133 | 122.9 nm | 87.2% | 0.113 | 106.4 nm | 1.80E+06 | 1.17E+07 | 1.26E+07 | Total flux 48 hours [2]: 4.56E+05; Total flux 72 hours [2]: 4.96E+05; Total flux [2]: 2.62E+06; Fold increase in total flux at 3 h, MC3 [2]: 0.94; Fold increase in total flux at 3 h, SM-102 [2]: 0.10; PDI [3]: 0.145; size (nm) Number [3]: 113 nm; Zeta (mV) [3]: −8.94 mV; EE (%) [4]: 90% |
| CCCCCCCCCCCOC(=O)CCCCCN(CCCCCCCC(=O)OC(CCCCCCCC)CCCCCCCC)CC(O)CCCCNC(=O)c1c[nH]cn1 (stereo not shown) [Compound 34, Heptadecan-9-yl 8-((2-hydroxy-6-(1H-imidazole-4-carboxamido)hexyl)(6-oxo-6-(undecyloxy)hexyl)amino)octanoate] | 94.0% | 116.7 nm | 92.9% | 0.126 | 121.7 nm | 91.4% | 0.079 | 164.4 nm | 94.0% | 0.143 | 116.7 nm | 90.9% | 0.139 | 129.6 nm | 89.3% | 0.132 | 164.4 nm | 6.37E+06 | 3.60E+07 | 1.70E+07 | Total flux 48 hours [2]: 1.11E+06; Total flux 72 hours [2]: 7.64E+05; Total flux [2]: 2.79E+06; Fold increase in total flux at 3 h, MC3 [2]: 2.91; Fold increase in total flux at 3 h, SM-102 [2]: 0.32; PDI [3]: 0.143; size (nm) Number [3]: 117 nm; Zeta (mV) [3]: −1.50 mV; EE (%) [4]: 94% |
| CCCCCCCCCCCOC(=O)CCCCCN(CCCCCCCC(=O)OC(CCCCCCCC)CCCCCCCC)CC(O)CCCCNC(=O)c1cn(C)cn1 (stereo not shown) [Compound 37, Heptadecan-9-yl 8-((2-hydroxy-6-(1-methyl-1H-imidazole-4-carboxamido)hexyl)(6-oxo-6-(undecyloxy)hexyl)amino)octanoate] | 89.5% | 114.5 nm | 89.9% | 0.155 | 123.7 nm | 90.0% | 0.280 | 138.7 nm | 89.5% | 0.154 | 114.5 nm | 88.0% | 0.087 | 133.6 nm | 83.8% | 0.126 | 135.7 nm | 7.40E+06 | 8.89E+06 | 5.97E+06 | Total flux 48 hours [2]: 2.13E+06; Total flux 72 hours [2]: 1.85E+06; Total flux [2]: 2.32E+06; Fold increase in total flux at 3 h, MC3 [2]: 0.72; Fold increase in total flux at 3 h, SM-102 [2]: 0.08; PDI [3]: 0.154; size (nm) Number [3]: 115 nm; Zeta (mV) [3]: −3.30 mV; EE (%) [4]: 89% |

More lines, main results first:

| Normalized EE % D-1 ([1]; fLuc mRNA-LNP stored at 4° C.) | Size (nm) D-1 ([1]; fLuc mRNA-LNP stored at 4° C.) | Normalized EE % D-7 ([1]; fLuc mRNA-LNP stored at 4° C.) | PDI D-7 ([1]; fLuc mRNA-LNP stored at 4° C.) | Size (nm) D-7 ([1]; fLuc mRNA-LNP stored at 4° C.) | Normalized EE % D-30 ([1]; fLuc mRNA-LNP stored at 4° C.) | PDI D-30 ([1]; fLuc mRNA-LNP stored at 4° C.) | Size (nm) D-30 ([1]; fLuc mRNA-LNP stored at 4° C.) | Normalized EE % D-1 ([1]; fLuc mRNA-LNP stored at 25° C.) | PDI D-1 ([1]; fLuc mRNA-LNP stored at 25° C.) | Size (nm) D-1 ([1]; fLuc mRNA-LNP stored at 25° C.) | Normalized EE % D-7 ([1]; fLuc mRNA-LNP stored at 25° C.) | PDI D-7 ([1]; fLuc mRNA-LNP stored at 25° C.) | Size (nm) D-7 ([1]; fLuc mRNA-LNP stored at 25° C.) | Normalized EE % D-30 ([1]; fLuc mRNA-LNP stored at 25° C.) | PDI D-30 ([1]; fLuc mRNA-LNP stored at 25° C.) | Size (nm) D-30 ([1]; fLuc mRNA-LNP stored at 25° C.) | SMILES | Total flux 1 hour [2] | Total flux 3 hours [2] | Total flux 6 hours [2] | further results |
| --- | --- | --- | --- | --- | --- | --- | --- | --- | --- | --- | --- | --- | --- | --- | --- | --- | --- | --- | --- | --- | --- |
| 88.0% | 124.6 nm | 85.3% | 0.064 | 121.4 nm | 87.6% | 0.106 | 126.6 nm | 88.0% | 0.145 | 124.6 nm | 85.6% | 0.016 | 126.1 nm | 87.0% | 0.125 | 127.5 nm | CCCCCCCCCCCOC(=O)CCCCCN(CCCCCCCC(=O)OC(CCCCCCCC)CCCCCCCC)CC(O)CCCCNC(=O)c1cccn1C (stereo not shown) [Compound 18, Heptadecan-9-yl 8-((2-hydroxy-6-(1-methyl-1H-pyrrole-2-carboxamido)hexyl) (6-oxo-6-(undecyloxy)hexyl)amino)octanoate] | 1.63E+06 | 7.75E+06 | 1.56E+07 | Total flux 48 hours [2]: 1.54E+05; Total flux 72 hours [2]: 1.96E+05; Total flux [2]: 1.70E+06; Fold increase in total flux at 3 h, MC3 [2]: 0.63; Fold increase in total flux at 3 h, SM-102 [2]: 0.07; PDI [3]: 0.145; size (nm) Number [3]: 125 nm; Zeta (mV) [3]: −1.04 mV; EE (%) [4]: 88% |
| 88.5% | 142.2 nm | 91.1% | 0.086 | 141.1 nm | 87.6% | 0.086 | 147.3 nm | 89.5% | 0.132 | 142.2 nm | 88.0% | 0.093 | 140.4 nm | 86.1% | 0.041 | 152.0 nm | CCCCCCCCCCCOC(=O)CCCCCN(CCCCCCCC(=O)OC(CCCCCCCC)CCCCCCCC)CC(O)CCCCNC(=O)c1cncn1C (stereo not shown) [Compound 38, Heptadecan-9-yl 8-((2-hydroxy-6-(1-methyl-1H-imidazole-5-carboxamido)hexyl)(6-oxo-6-(undecyloxy)hexyl)amino)octanoate] | 2.19E+07 | 4.19E+07 | 1.47E+07 | Total flux 48 hours [2]: 7.89E+05; Total flux 72 hours [2]: 5.32E+05; Total flux [2]: 2.13E+06; Fold increase in total flux at 3 h, MC3 [2]: 3.39; Fold increase in total flux at 3 h, SM-102 [2]: 0.37; PDI [3]: 0.132; size (nm) Number [3]: 142 nm; Zeta (mV) [3]: −4.28 mV; EE (%) [4]: 88% |
